Assay results published in patent US8778899B2, “Methods of inducing regulated pancreatic hormone production in non-pancreatic islet tissues” (priority 1999, dated 2014).

How the values were obtained:
human liver cells = test: Quantitative real-time RT-PCR gene expression in human liver cells; type: cell-based; details: without PDX-1
Protocol: Liver cells were cultured in Dulbecco's minimal essential medium (1 gr/L glucose) with or without growth factors as indicated separately (EGF 20 ng/ml, Cytolab Ltd.; Nicotinamide 10 mM, Sigma), and were infected by recombinant adenoviruses (500 moi) for 5 days. The recombinant adenoviruses used in this study: Ad-RIP-GFP-CMV-PDX-1, Ad-CMV-PDX-1, Ad-CMV-hIns^40, Ad-CMV-GFP (Clontech, BD Biosciences).
Alternatively, quantitative real-time RT-PCR, was performed using ABI Prism 7000 sequence Detection system (Applied Biosystems).
Amplification conditions included initiation at 50° C. for 2 minutes, denaturation at 95° C. for 10 minutes, followed by 40 cycles, each cycle included denaturation at 95° C. for 15 seconds and annealing at 60° C. for 1 minute, using the TaqMan PCR Master Mix (Applied Biosystems). Relative quantitative analysis was according to ABI prism 7000 SDS software, using the 2^(−ΔCt) equation. The mRNA levels were corrected for human β-actin mRNA.

adult human liver cells = test: Glucose challenge assay; type: cell-based; details: 0-25 mM, 2 hours
Protocol: Adult liver cells were treated with Ad-CMV-PDX-1 and growth factors for 5 days. The cells were plated in 6-well plates at 10^5 cells per well.
For time course analysis the cells were preincubated for 2 hours in Krebs-Ringer buffer (KRB) containing 0.1% BSA, followed by incubation for the indicated period in media containing 2 mM or 25 mM glucose. At each time point media samples were analyzed for insulin (Ultra Sensitive Human Insulin RIA kit—Linco Research) and C-peptide secretion (Human C-Peptide RIA kit—Linco Research).
Glucose dose response; Cells were preincubated for 2 hours with KRB containing 0.1% BSA, washed and challenged thereafter with increasing concentrations of D-Glucose or 2-deoxy-Glucose (0-25 mM) for 2 hours. At the end of the incubation period at 25 mM glucose, the cells were washed with KRB and incubated for additional 2 hours in 2 mM glucose containing media.

Compound	PDX-1 independent effect on pancreatic gene expression (human liver cells)	C-peptide secretion in transdifferentiated liver cells (adult human liver cells)
EGF: epidermal growth factor, soluble factor added to liver cell cultures (NSDSECPLSHDGYCLHDGVCMYIEALDKYACNCVVGYIGERCQYRDLKWWELR; UniProt P01133 971-1023, looked up)	Neither nicotinamide nor EGF alone or their combination exhibited PDX-1 independent effect	
NC(=O)c1cccnc1 [nicotinamide]	Neither nicotinamide nor EGF alone or their combination exhibited PDX-1 independent effect	
O=CC[C@@H](O)[C@H](O)[C@H](O)CO [2-DOG, 2-deoxy-glucose]		did not trigger C-peptide secretion
